How the values were obtained:
human SIRT1 enzyme = test system: human SIRT1 enzyme; design: method as in doi:10.1177/1934578X1801301130; conditions: cited from earlier work
NCI-H460 cells [1] = test: MTT cell viability assay, NCI-H460 cells; format: cell-based, human
Protocol: (§1) The Bioresource Collection and Research Center (BCRC) in Hsinchu, Taiwan provided the NCI-H460 and A549 cell lines, which were cultured in DMEM supplemented with 10% FBS, 100 U/mL penicillin A, and 100 U/mL streptomycin. These cells were kept at a temperature of 37 °C with 5% CO2 and a humidified air environment.
(§2) To investigate the impact of α-viniferin (0–50 μM), ε-viniferin (0–50 μM), and signal transduction inhibitors (20 μM PD98059, 10 μM SB431542, 20 μM SP600125, 20 μΜ LY294002, 10 μM BIRB796, or 10 μM GO6976) on the viability of NCI-H460 or A549 cells were investigated using MTT assay. NCI-H460 or A549 cells were treated with various concentrations of α-viniferin, ε-viniferin, and signal transduction inhibitors and were incubated for 24, 48, or 72 h. Following incubation, 5 mg/mL MTT solution in phosphate-buffered saline (PBS) was added to each well, and the plate was further incubated for 4 h at 37 °C. Following this, the medium was aspirated, and DMSO was utilized to dissolve the MTT-formazan crystals. Finally, the solution was analyzed using a microplate reader at a wavelength of 540 nm.

NCI-H460-cell xenografts = test: In vivo xenograft tumor growth experiment; design: species or system BALB/c nude mice
Protocol: (§3) The male BALB/c nude mice utilized in this investigation were obtained from the National Laboratory Animal Breeding and Research Center situated in Taiwan. All animal experimentation procedures were conducted in accordance with National Tsinghua University’s Institutional Animal Care and Use Committee Guidelines (Protocol No. 107049). For this study, the hind leg of five-week-old nude mice was subcutaneously implanted with 1 × 10^6 NCI-H460 cells. Treatment was initiated only after the tumors had grown to a volume of 100–200 mm^3. Subsequently, the nude mice with NCI-H460-cell xenografts were randomly allocated into two groups: experimental and control, each comprising five mice. The experimental group was administered 5 mg/kg α-viniferin through intraperitoneal injection five times every week, while the control group was administered PBS. After four weeks, the mice were euthanized. Tumor weight, vimentin expression, histopathological changes and apoptosis in the tumor section were evaluated using immunohistochemistry (IHC) staining, hematoxylin and eosin staining, and TUNEL assay. The quantification of AST, CPK, LDH, and creatinine levels was carried out following previously described procedures. Briefly, AST, LDH, CPK, and creatinine levels were quantified using commercial kits (Wako Pure Chemical Industries, Osaka, Japan).

[2] = test system: osteosarcoma cells (U2OS); design: method as in PMID 34728247; conditions: cited from earlier work
NCI-H460 cells [3] = test: Annexin V/7-AAD double staining, flow cytometry; format: cell-based, human; conditions: 24 h, control 5.3%
Protocol: To investigate the molecular mechanism by which α-viniferin affects NCI-H460 cells, the presence of apoptotic and necrotic cells was analyzed using double staining with annexin V and 7-aminoactinomycin D (7-AAD). Annexin V, which binds to phosphatidylserine (PS), is used as a marker of early-stage apoptosis. The 7-ADD is a fluorescent DNA dye that is excluded from viable cells with intact membranes but can penetrate the plasma membrane of apoptotic and necrotic cells. Double staining with both annexin V and 7-AAD can differentiate between cells in different stages of apoptosis and necrosis. Specifically, cells that are annexin V+/7-AAD- are in early apoptosis, cells that are annexin V+/7-AAD+ are in late apoptosis, and cells that are annexin V-/7-AAD+ are in necrosis. Cells that are annexin V-/7-AAD- are considered viable. […] These findings implied dose-dependent induction of apoptosis by α-viniferin in NCI-H460 cells. The mechanism behind α-viniferin-induced apoptosis in NCI-H460 cells merits further investigation.
The annexin V and 7-ADD double staining was utilized to detect apoptotic and necrotic cells. NCI-H460 cells were treated with α-viniferin at various concentrations (0, 5, 10, 20, and 30 μM) for 24 h. Following treatment, the cells were collected by trypsinization and suspended in a warm medium. The cells in a suspension were centrifuged at 2000× g for 5 min, and the resulting supernatant was removed, leaving the cell pellets. The pellets were subsequently resuspended in 200 µL of PBS and were fixed by adding […]. Next, the cell pellets that had been fixed were resuspended in 500 µL of 1 × annexin V-FITC Binding Buffer, to which 5 µL each of annexin V-FITC and 7-AAD staining reagents were added. The samples were then vortexed gently and incubated for 15 min at 4 °C in the dark. Finally, the samples were analyzed using a BD FACScan™ flow cytometer.

[4] = Serum AST, CPK, LDH and creatinine in xenograft-bearing mice; format: in vivo, BALB/c nude mice; conditions: 5 mg/kg i.p., five times every week, four weeks
Protocol: as §3

NCI-H460 cells [5] = test: Immunofluorescence assay of AIF localization (Hoechst 33258 nuclear stain); format: cell-based, human; conditions: 5, 10, 15, 20, 30 μM, 24 h
Protocol: The immunofluorescence assay was conducted following the method described in a previous study to detect the localization of AIF in NCI-H460 cells after treatment with α-viniferin at various concentrations (0, 5, 10, 15, 20, and 30 μM) for 24 h. After treatment, the cells in a 6-well plate were washed with PBS, and fixed immediately with 4% formaldehyde at room temperature for 15 min. Then, NCI-H460 cells were treated with 0.1% Triton X-100 in PBS at room temperature for 15 min to achieve permeabilization. After that, NCI-H460 cells were incubated with anti-AIF primary antibodies at 4 °C for 24 h, followed by incubation with secondary antibodies conjugated with fluorescein isothiocyanate at 37 °C for 1 h. To stain the cell nuclei, NCI-H460 cells were treated with a solution containing […] Hoechst 33,258 for 30 min. After washing the cells with PBS, they were mounted onto a glass slide for visualization. Confocal laser scanning microscopy was employed to capture the images. The mean fluorescence intensity, which represented the protein level, was analyzed using the Image J software.

A549 lung cancer cells = test system: A549 lung cancer cells; design: method as in PMID 34728247; conditions: cited from earlier work
A549 = test system: A549; design: method as in PMID 34728247; conditions: A549 cells; cited from earlier work
NSCLC cells = test system: NSCLC cells; design: method as in PMID 35684095; conditions: cited from earlier work
osteosarcoma cells (HOS) = test system: osteosarcoma cells (HOS); design: method as in PMID 34728247; conditions: cited from earlier work
NCI-H460 cells [6] = test: Western blot of apoptosis-related proteins; format: cell-based, human; conditions: 10, 15, 20, 30 μM, 24 h
Protocol: The western blot analysis was conducted to check the expression levels of cleaved caspase-3, cleaved PARP, SIRT1, vimentin, and AKT phosphorylation in NCI-H460 cells after treatment with α-viniferin at various concentrations (0, 10, 15, 20, and 30 μM) for 24 h. After treatment, the cells in a 10-cm plate were lysed in an ice-cold lysis buffer, containing protease and […] inhibitors. The Bio-Rad protein assay kit (Bio-Rad Laboratories, Hercules, CA, USA) was utilized to measure the protein concentration in each lysate. Equal amounts of protein (50 μg) were loaded onto each lane, separated using sodium dodecyl sulfate-polyacrylamide gel electrophoresis (SDS-PAGE), and subsequently transferred onto polyvinylidene fluoride (PVDF) membranes. First, the membranes were blocked using 1% BSA in PBS at room temperature for 1 h. Then, the membranes incubated with primary antibodies against full length caspase-3, activated caspase-3, full length PARP, cleaved PARP, SIRT1, vimentin, and AKT phosphorylation, and followed by secondary antibodies conjugated with horseradish peroxidase were added to the samples. Finally, the immunoreactive bands were visualized using an enhanced chemiluminescence (ECL) detection system.

A549 cells = test: MTT cell viability assay, A549 cells; format: cell-based, human; conditions: low doses (20 μM)
Protocol: as §1, §2

[7] = 5 mg/kg i.p., five times every week, four weeks, compared with control

Oc1ccc([C@H]2Oc3cc(O)cc(/C=C/c4ccc5c(c4)[C@@H](c4cc(O)cc6c4[C@H](c4cc(O)cc(O)c4)[C@@H](c4ccc(O)cc4)O6)[C@H](c4ccc(O)cc4)O5)c3[C@@H]2c2cc(O)cc(O)c2)cc1 [(−)-vitisin B]
activity of the human SIRT1 enzyme (human SIRT1 enzyme): inhibit the activity

O=c1cc(N2CCOCC2)oc2c(-c3ccccc3)cccc12 [LY294002, reference compound]
cell viability (NCI-H460 cells [1]; inhibitor 20 μM, 24 h): decreased cell viability

COc1cccc(-c2cc(=O)c3ccccc3o2)c1N [PD98059, reference compound]
cell viability (NCI-H460 cells [1]; inhibitor 20 μM, 24 h): decreased cell viability

Oc1ccc([C@H]2c3c(O)cc(O)cc3[C@H]3c4c(cc(O)cc4[C@@H]2c2cc(/C=C/c4cc(O)cc5c4[C@H](c4cc(O)cc(O)c4)[C@@H](c4ccc(O)cc4)O5)ccc2O)O[C@@H]3c2ccc(O)cc2)cc1 [vitisin A]
activity of the human SIRT1 enzyme (human SIRT1 enzyme): inhibit the activity

Oc1ccc([C@H]2Oc3cc(O)cc4c3[C@@H]2c2cc(O)cc3c2[C@@H](c2cc(O)cc5c2[C@@H]4[C@H](c2ccc(O)cc2)O5)[C@H](c2ccc(O)cc2)O3)cc1 [α-viniferin, α-Viniferin]
apoptotic cells in tumor tissue (TUNEL staining) (NCI-H460-cell xenografts; 5 mg/kg i.p., five times every week, four weeks): increased numbers of apoptotic cells | tumor volume (NCI-H460-cell xenografts; [7]): more significant reduction | tumor weight (NCI-H460-cell xenografts; [7]): more significant reduction | vimentin expression in tumor (IHC) (NCI-H460-cell xenografts; [7]): reduced | tumor growth (NCI-H460-cell xenografts; 5 mg/kg, i.p., five days/week): suppression of tumor growth | apoptosis [2]: induce apoptosis | apoptotic cells (early + late apoptotic cells) (NCI-H460 cells [3]; 5 μM): 7.0% | apoptotic cells (early + late apoptotic cells) (NCI-H460 cells [3]; 10 μM): 8.3% | apoptotic cells (early + late apoptotic cells) (NCI-H460 cells [3]; 20 μM): 22.3% | apoptotic cells (early + late apoptotic cells) (NCI-H460 cells [3]; 30 μM): 35.0% | liver or kidney function (serum AST, CPK, LDH, creatinine) [4]: no negative impact | AIF translocation to the nucleus (NCI-H460 cells [5]): translocated to the nucleus | DNA fragmentation (NCI-H460 cells [5]): caused DNA fragmentation | epithelial mesenchymal transition (EMT) (A549 lung cancer cells): inhibit epithelial mesenchymal transition | apoptosis (A549): induce apoptosis | TGF-induced vimentin expression (NSCLC cells): inhibit TGF-induced vimentin expression | cell viability (NCI-H460 cells [1]; low doses 10–20 μM, 24, 48, 72 h): inhibited cell viability in a dose- and time-dependent manner | apoptosis (osteosarcoma cells (HOS)): induce apoptosis | protein expression level of SIRT1 (NCI-H460 cells [6]): decreased the protein expression levels | protein expression level of vimentin (NCI-H460 cells [6]): decreased the protein expression levels | protein expression of activated caspase-3 (NCI-H460 cells [6]): increased the protein expression | protein expression of cleaved PARP (NCI-H460 cells [6]): increased the protein expression | AKT phosphorylation (NCI-H460 cells [6]; normalized to AKT): decreased the protein expression levels

Oc1ccc(/C=C/c2cc(O)cc3c2[C@@H](c2cc(O)cc(O)c2)[C@H](c2ccc(O)cc2)O3)cc1 [ε-viniferin]
anti-proliferative effect (NCI-H460 cells [1]; 20 μM): did not exhibit potent anti-proliferative effects | anti-proliferative effect (NCI-H460 cells [1]; higher concentrations (above 20 μM)): did demonstrate such effects | cell viability (A549 cells): inhibited A549 cell viability

(+)-hopeaphenol
activity of the human SIRT1 enzyme (human SIRT1 enzyme): inhibit the activity
